The values below come from patent EP3168211A1, “PHARMACEUTICAL CO-CRYSTALS OF NICLOSAMIDE” (Westfälische Wilhelms-Universität Münster, priority 2015, dated 2017).

The conditions of series [1]: male Sprague-Dawley rats; cited from earlier work.
The next series is described as follows: physchem. The settings on record: 37 °C, aqueous with cosolvent or surfactant or cyclodextrin, thermodynamic from solid.
The conditions of series [2]: for factor: equilibrium solubility relative to pristine NCL; for factor / Solubility at 37° C (24 h) in 40% isopropanol-water mixture: 37°C, 24 h, 40% isopropanol-water; for increase of the equilibrium solubility: result in words, versus pristine NCL; for Solubility at 37° C (24 h) in 40% isopropanol-water mixture: equilibrium solubility, shake-flask, sample normalized to 50 mg of NCL in 2.5 mL.
Procedure: (§1) Solubility Experiments: The quantification of NCL was validated using a Phenomenex Gemini-NX HPLC-UV/vis and a C18 column (250 mm x 4.6 mm, 5 mm particle diameter). […] The considered concentration range of known NCL was in between 0.5-100 µg/mL. The flow rate and the injection volume was set to 1.0 mL/min and 50 µL, respectively. The limit of detection was 0.1 µg/mL and the limit of quantification 0.5 µg/mL. The absorbance was measured at 254 nm. The equilibrium solubility was determined in 40% isopropanol-water medium using a shake-flask method. Accordingly, each solid sample containing 50 mg of NCL was stirred for 24 h in 2.5 mL of the medium at 37°C, and the absorbance was measured at 337 nm. The concentration of the saturated solution was calculated after 24 h which is referred to as the equilibrium solubility of the stable solid form.
(§2) The corresponding equilibrium solubility of NCL, its novel co-crystals and some reference compounds was determined following established procedures. […] In order to allow for a better comparability of the determined solubility values, the amount of NCL actually present in the tested co-crystals was normalized to 50 mg per sample, therefore adjusting the initially weighted sample accordingly.

The conditions of series [3]: solubility factor relative to NCL reported by P. Sanphui et al.; weights not normalized to the amount of NCL; cited from earlier work.

Values after ≈ are worked out from the molar mass of the structure shown.

Procedure for physchem: as §1, §2

Usually solubility stands for the dissolved amount per volume that the medium holds. Read a low solubility as a poorly soluble substance. `O=C(Nc1ccc([N+](=O)[O-])cc1Cl)c1cc(Cl)ccc1O` [NCL, 2',5-dichloro-4'-nitrosalicylanilide]: the oral bioavailability in series [1] was 10%. This molecule also came in with a solubility at 24 h in “physchem” of 0.0872 mg/mL (≈ 266 µM).
For Niclosamide - acetamide [NCL-AA-I], in series [2], the factor is recorded as 1.4 and the “increase of the equilibrium solubility” value is reported as “moderate increase”.
For Niclosamide - isoniazide [NCL-IN], the “increase of the equilibrium solubility” value in series [2] is listed as “moderate increase”.
What is called Solubility is the dissolved amount per volume that the medium holds. Take Niclosamide - isonicotinamide [NCL-IA]: in series [2], the factor is 1.3 and the “Solubility at 37° C (24 h) in 40% isopropanol-water mixture” value is 0.11345 mg/mL. Besides, in series [3], the “factor*” value is reported as 1.7.
Niclosamide - nicotinamide [NCL-NA]: in series [2], the factor worked out at 1.3 and the “Solubility at 37° C (24 h) in 40% isopropanol-water mixture” value is 0.11445 mg/mL. The “factor*” value in series [3] is reported as 1.2.
